# In US20060257843A1 (priority 2002, published 2006):
# Where two headings read alike, the source gives them in different places.
# Tests used:
# [1] = system: primary cultures of cortex
# cortical cells = conditions: 100 uM tolbutamide
# [2] = system: primary cortical cultures; conditions: 5% Triton; 20 minutes incubation
# F425G Shaker mutation = F425G Shaker mutation (Drosophila melanogaster, UniProt P08510, F425G); conditions: cited from earlier work
# Chain of F425G Shaker mutation (P08510 whole entry F425G): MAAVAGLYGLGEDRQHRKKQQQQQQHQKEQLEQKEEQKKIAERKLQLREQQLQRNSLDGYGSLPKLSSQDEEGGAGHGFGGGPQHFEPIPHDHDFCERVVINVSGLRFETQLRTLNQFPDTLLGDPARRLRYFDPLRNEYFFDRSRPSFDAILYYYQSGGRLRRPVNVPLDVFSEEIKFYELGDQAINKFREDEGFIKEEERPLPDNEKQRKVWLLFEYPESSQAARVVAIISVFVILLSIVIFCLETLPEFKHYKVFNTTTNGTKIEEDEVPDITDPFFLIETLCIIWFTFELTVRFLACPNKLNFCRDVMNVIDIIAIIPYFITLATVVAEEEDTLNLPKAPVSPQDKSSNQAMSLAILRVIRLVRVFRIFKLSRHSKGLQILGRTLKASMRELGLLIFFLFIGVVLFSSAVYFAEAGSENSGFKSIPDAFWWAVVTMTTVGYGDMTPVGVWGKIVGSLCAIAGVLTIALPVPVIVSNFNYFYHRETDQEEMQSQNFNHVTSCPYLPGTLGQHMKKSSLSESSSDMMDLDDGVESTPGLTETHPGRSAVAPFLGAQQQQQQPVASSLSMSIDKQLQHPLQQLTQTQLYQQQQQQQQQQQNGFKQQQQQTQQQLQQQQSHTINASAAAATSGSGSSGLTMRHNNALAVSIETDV
molecule,measurement,setting,value
"Nc1ccncc1 [4-AP, 4-aminopyridine]",effect of K+ channel antagonist on κ-PVIIA-induced hyperpolarization,"[1]; cortical preparations, 100 nM κ-PVIIA",without any detectable effect
COc1ccc(Cl)cc1C(=O)NCCc1ccc(S(=O)(=O)NC(=O)NC2CCCCC2)cc1 [Glibenclamide],effect of Glibenclamide on κ-PVIIA-induced hyperpolarization,"[1]; cortical preparations, Glibenclamide 10 nM, 100 nM κ-PVIIA",significant reductions
"CCCCNC(=O)NS(=O)(=O)c1ccc(C)cc1 [Tolbutamide, reference compound]",effect of tolbutamide on κ-PVIIA protection against glutamate cytotoxicity,cortical cells,blocked
"Iberiotoxin (QFTDVDCSVSKECWSVCKDLFGVDRGKCMGKKCRCYQ; UniProt P24663 1-37, looked up) [IBTX]",effect of K+ channel antagonist on κ-PVIIA-induced hyperpolarization,[1],without any detectable effect
Triton [reference compound],"increase in fluorescence, Enzchek protease-sensitive dye",[2],~14%
charybdotoxin [reference compound],increase of charybdotoxin affinity by F425G Shaker mutation,F425G Shaker mutation,three orders of magnitude
